Values after ≈ are worked out from the molar mass of the structure shown.
Assays:
[1] = tested on: Gaeumannomyces graminis var. tritici; assay: In vitro inhibition of mycelial growth on silthiopham-amended agar; type: cell-based; on ACTIVITY RATING (0-3): key: 0 = no; 1 = weak; 2 = good; 3 = excellent
[2] = tested on: Fusarium oxysporum var. pisi race1 33-11; assay: as above; type: cell-based; on ACTIVITY RATING (0-3): key: 0 = no; 1 = weak; 2 = good; 3 = excellent
[3] = tested on: microorganisms that are known to be soybean pathogens; assay: In vitro inhibition of mycelial growth, summary for soybean pathogens; type: cell-based; settings: summary of Table 6
Rhizoctonia solani 15-10 = assay: In vitro inhibition of mycelial growth on silthiopham-amended agar; type: cell-based; on ACTIVITY RATING (0-3): key: 0 = no; 1 = weak; 2 = good; 3 = excellent
[4] = tested on: Fusarium solani, var. pisi 34-1; assay: as above; type: cell-based; on ACTIVITY RATING (0-3): key: 0 = no; 1 = weak; 2 = good; 3 = excellent
[5] = tested on: Fusarium solani, var. coeruleum 4-2; assay: as above; type: cell-based; on ACTIVITY RATING (0-3): key: 0 = no; 1 = weak; 2 = good; 3 = excellent
[6] = tested on: Fusarium oxysporum var. pisi race1 33-9; assay: as above; type: cell-based; on ACTIVITY RATING (0-3): key: 0 = no; 1 = weak; 2 = good; 3 = excellent
Septoria nodorum = assay: as above; type: cell-based; settings: Glum blotch; further: key: 0 = no; 1 = weak; 2 = good; 3 = excellent
Phytopthera infestans = type: cell-based; settings: Late blight
Rhizoctonia solani 15-9 = assay: In vitro inhibition of mycelial growth on silthiopham-amended agar; type: cell-based; on ACTIVITY RATING (0-3): key: 0 = no; 1 = weak; 2 = good; 3 = excellent
[7] = tested on: Fusarium solani, var. pisi 34-2; assay: as above; type: cell-based; on ACTIVITY RATING (0-3): key: 0 = no; 1 = weak; 2 = good; 3 = excellent
[8] = tested on: Fusarium solani, var. coeruleum 4-5; assay: as above; type: cell-based; on ACTIVITY RATING (0-3): key: 0 = no; 1 = weak; 2 = good; 3 = excellent
Colletotrichum trifolii = assay: as above; type: cell-based; settings: Root rot in alfalfa; further: key: 0 = no; 1 = weak; 2 = good; 3 = excellent
[9] = tested on: soybean plants (CSR2121 variety); assay: Soybean seed treatment field trial, upper Midwestern United States; type: in vivo
soybean plants = assay: Soybean seed treatment field trial on five farms in South Africa; type: in vivo
[10] = tested on: Fusarium oxysporum var. pisi race1 33-10; assay: In vitro inhibition of mycelial growth on silthiopham-amended agar; type: cell-based; on ACTIVITY RATING (0-3): key: 0 = no; 1 = weak; 2 = good; 3 = excellent
[11] = Fusarium solani, 96 h, Czapek-Dox agar, 4 days at 18° C., log-log fit
[12] = Fusarium oxysporum, 96 h, Czapek-Dox agar, 4 days at 18° C., log-log fit
[13] = seed treatment prior to planting, at plant maturity

C=CCNC(=O)c1c([Si](C)(C)C)sc(C)c1C [Silthiopham, 4,5-dimethyl-N-(2-propenyl)-2-(trimethylsilyl)-3-thiophenecarboxamide]
EC50 ([1]; Gaeumannomyces graminis, 96 h, Czapek-Dox agar, 4 days at 18° C., log-log fit): 0.001 µg/mL (≈ 0.00374 µM) | ACTIVITY RATING (0-3) ([1]; Take-all disease in cereals): 3 | activity against Gaerumannomyces graminis var. tritici (in words) ([1]; summary of Table 6): excellent activity | EC50 ([2]; Fusarium oxysporum, 96 h): 36100 µg/mL (≈ 135000 µM) | ACTIVITY RATING (0-3) ([2]; Root rot): 0 | activity against soybean pathogens (in words) [3]: little or no activity | EC50 (Rhizoctonia solani 15-10; Rhizoctonia solani, 1510, 96 h, Czapek-Dox agar, 4 days at 18° C., log-log fit): 132 µg/mL (≈ 494 µM) | ACTIVITY RATING (0-3) (Rhizoctonia solani 15-10; Sheath blight): 0 | EC50 [4, 11]: 126 µg/mL (≈ 470 µM) | ACTIVITY RATING (0-3) ([4]; Root rot): 0 | EC50 [5, 11]: 113 µg/mL (≈ 423 µM) | ACTIVITY RATING (0-3) ([5]; Root rot): 0 | EC50 [6, 12]: 109 µg/mL (≈ 407 µM) | ACTIVITY RATING (0-3) ([6]; Root rot): 0 | ACTIVITY RATING (0-3) (Septoria nodorum): 0 | ACTIVITY RATING (0-3) (Phytopthera infestans): 0 | EC50 (Rhizoctonia solani 15-9; Rhizoctonia solani, 159, 96 h, Czapek-Dox agar, 4 days at 18° C., log-log fit): 162 µg/mL (≈ 607 µM) | ACTIVITY RATING (0-3) (Rhizoctonia solani 15-9; Sheath blight): 0 | EC50 [7, 11]: 106 µg/mL (≈ 398 µM) | ACTIVITY RATING (0-3) ([7]; Root rot): 0 | EC50 [8, 11]: 127 µg/mL (≈ 476 µM) | ACTIVITY RATING (0-3) ([8]; Root rot): 0 | ACTIVITY RATING (0-3) (Colletotrichum trifolii): 0 | improvement in yield compared with untreated control beans ([9]; FIG. 3, soybean yield): no improvement over the untreated control | seed weight increase (beans larger) than untreated control beans ([9]; FIG. 4): performed comparably with untreated beans | plant height increase (plants taller) than untreated control beans ([9]; FIG. 5): performed comparably with untreated beans | Canopy (% coverage) ([9]; percent of canopy closure, 100% is total coverage): 78% | Plant Height [9, 13]: 22.8 inches | Seed Weight [9, 13]: 11.0 gm/100 seeds | Grain Yield ([9]; seed treatment prior to planting, determined at plant maturity, adjusted to 13% moisture): 36.4 bu/ac | Vigor (1 worst-9 best) ([9]; standard 1-9 scale, 1 worst, 9 best and most vigorous): 6 | SOYBEAN YIELD (soybean plants; Avg. of farms 3-5 (dryland)): 1949 kg/ha | SOYBEAN YIELD (soybean plants; Farm 4, dryland, cultivar SNK444, sand clay 12%): 1844 kg/ha | SOYBEAN YIELD (soybean plants; Farm 5, dryland, cultivar SNK400, clay 40%): 2054 kg/ha | grain yield, statistical comparison (soybean plants; combination vs standard Mollyflo+Bradyrhizobium, silthiopham alone vs non-treated control): did not significantly differ from the non-treated control | visual appearance of vegetative growth (soybean plants; compared to the standard Mollyflo+inoculant treatment): appeared visually greener and more vigorous | number of nodules on plant roots (soybean plants; farms 4 and 5, FIGS. 6 and 7, plants in 400-mm rows): did not substantially affect the number of nodules | plant weight (soybean plants; farms 4 and 5, FIGS. 8 and 9, 2 meters per plot): no effect on plant weight | visual appearance of nodules (soybean plants; where silthiopham was included in the treatment): Nodules visually appeared healthier | EC50 [10, 12]: 112 µg/mL (≈ 421 µM) | ACTIVITY RATING (0-3) ([10]; Root rot): 0
